Tested on: GBS laboratory strains and clinical isolates
Assay: Microbroth (96-well) penicillin tolerance assay
Assay type: cell-based, Group B Streptococcus
Conditions: for Penicillin Phenotypes: 48 hr penicillin, 24 hr drug free culture; for replication or viability after re-plate and additional 24-hour culture (FIG. 1): penicillin G 1× to 256×MIC90 48 hours
Method: An in vitro method involving microbroth (96-well) culture was used to develop a penicillin tolerance assay. In this assay, the inventors tested three laboratory bacterial strains (i.e., GBS strains A909, NEM316, and O90R). These cells were commercially obtained from ATCC source. Bacterial cells were cultured overnight for 18 hours at 37° C. in Todd-Hewitt Broth (THB). Subcultures in THB were subsequently grown to exponential phase (OD600˜0.3) at 37° C. Cell cultures were then exposed to different concentrations of penicillin G (Sigma, St. Louis, Mo.). […] Cell cultures were dispersed. A dilution (i.e., 1 to 20) of cells was re-plated into new wells containing fresh THB with 500 U Penase (to destroy residual penicillin). Cell cultures were allowed to grow for an additional 24 hours at 37° C. Assays were repeated four (4) times and standard bar represents standard deviations.
Using this established 96-well assay (i.e., microbroth assay), 115 clinical isolates of GBS were further tested. These were cervico-vaginal rectal clinical isolates (obtained from pregnant humans), and characterized their penicillin tolerance. The phenotype definitions (above) were used to identify the penicillin tolerant isolates.
(I) Bacterial Strains and Culture Conditions. GBS strains A909 (serotype IA), 515 (serotype IA), NEM316 (serotype III), COHI (serotype III), 2603V/R (serotype V) and O90R (non-typable) were used in this study. E. coli Top10 cells were used for the recombination experiments. GBS was cultured in Todd Hewitt broth (THB) or Tryptic Soy 5% sheep blood (TS) media and E. coli in Luria-broth (LB) medium or agar. Antibiotics were used at the following concentrations: for GBS—penicillin G (MIC90 0.06 μg ml^−1), ampicillin (MIC90 0.12 μg ml^−1), vancomycin (MIC90 2 μg ml^−1), cefazolin (MIC90 1 μg ml^−1) and chloramphenicol (5 μg ml^−1); for E. coli—ampicillin (50 μg ml^−1) and chloramphenicol (5 μg ml^−1). Both GBS and E. coli cultures were grown at 37° C. (II) Tolerance Using the MBC:MIC Ratio Method. Three GBS laboratory strains (i.e., A909, NEM316, and O90R) were cultured overnight for 18 h at 37° C. in THB. Subcultures in THB were subsequently grown to exponential phase (OD600˜0.3; i.e. 5×10^5 cfu/ml) at 37° C. Cell cultures were then exposed to different concentrations of antibiotics (Penicillin G, Ampicillin, Cefozolin or Vancomycin). […] Cell cultures were dispersed every 18 h before OD600 was measured to determine the lowest concentration of antibiotic with 90% growth inhibition (MIC90). Antibiotic treated cells (8 μl) from each well were re-suspended into PBS (100 μl) and plated (54 μl) on TS agar plates and allowed to grow for an additional 24 h at 37° C. Cell count was performed to determine the lowest concentration of antibiotic with 90% killing of original inoculums (MBC90). (III) Penicillin Killing and Regrowth Tolerance Assay by Microbroth Dilution. Three GBS laboratory strains (i.e., A909, NEM316, and O90R) were cultured overnight for 18 h at 37° C. in THB. Subcultures in THB were subsequently grown to exponential phase (OD600˜0.3) at 37° C. Cell cultures were then exposed to different concentrations of Penicillin G (Sigma, St. Louis, Mo.). […] Cell cultures were dispersed. A 1:20 dilution of cells was re-plated into new wells containing fresh THB with 500 U Penase (to degrade residual penicillin). Cell cultures were allowed to re-grow for an additional 24 h at 37° C. before the OD600 was measured. (IV) Measuring Cell Viability by Determining ATP Concentration. GBS strains were cultured for 18 h at 37° C. in THB. These cells were inoculated into fresh THB and subsequently allowed to grow to exponential phase (OD600 0.25-0.3) at 37° C. One ml of each culture was centrifuged at 5,000×g for 4 min. The cell pellet was re-suspended in ATP-free water. Cellular ATP was extracted using trichloroacetic acid (TCA) (5%) for 2 min and subsequently neutralized with Tris-EDTA-0.1M NaOAc, pH 7.75 to 10×TCA volume. […]

CC1(C)S[C@@H]2[C@H](NC(=O)Cc3ccccc3)C(=O)N2[C@H]1C(=O)O [Penicillin G]
% GBS Clinical Strains, Intermediate (115 clinical isolates): 8%
% GBS Clinical Strains, Paradoxical Effect-Penicillin Tolerance (PE-PT) (115 clinical isolates): 27%
% GBS Clinical Strains, Penicillin Tolerance (PT) (115 clinical isolates): 16%
% GBS Clinical Strains, Susceptible (S) (115 clinical isolates): 49%
Penicillin Phenotypes (GBS laboratory strain A909): Susceptible (S)
Penicillin Phenotypes (GBS laboratory strain NEM316): Paradoxical Effect-Penicillin Tolerance (PE-PT)
Penicillin Phenotypes (GBS laboratory strain O90R): Penicillin Tolerance (PT)
replication or viability after re-plate and additional 24-hour culture (FIG. 1) (GBS strain A909): did not replicate
replication or viability after re-plate and additional 24-hour culture (FIG. 1) (GBS strain NEM316, viability lost at 16× to 64×MIC90): paradoxical effect
replication or viability after re-plate and additional 24-hour culture (FIG. 1) (GBS strain O90R): did not inhibit the replication or viability

— US8247170B2, “Detection of penicillin tolerance in Group B Streptococcus: single nucleotide polymorphisms in penicillin binding protein 4” (priority 2008, dated 2012)
